{"source": "paper PMC4435776", "about": "(Journal of cardiovascular translational research, 2014)", "origin": "cited, not measured here", "tested_on": "Mouse ESC", "conditions": "compared with the effect of CsA; ref [56]"}
{"molecule": "11R-VIVIT", "values": [{"measurement": "effect on stem cells of other calcineurin/NFAT inhibitors", "value": "absence of a significant effect"}]}
{"molecule": "C=CC[C@@H]1/C=C(\\C)C[C@H](C)C[C@H](OC)[C@H]2O[C@@](O)(C(=O)C(=O)N3CCCC[C@H]3C(=O)O[C@H](/C(C)=C/[C@@H]3CC[C@@H](O)[C@H](OC)C3)[C@H](C)[C@@H](O)CC1=O)[C@H](C)C[C@@H]2OC", "note": "[tacrolimus]", "values": [{"measurement": "effect on stem cells of other calcineurin/NFAT inhibitors", "value": "absence of a significant effect"}]}
